In patent US20150190416A1, “FILAGGRIN PRODUCTION PROMOTER, THERAPEUTIC AGENT FOR DISEASES ASSOCIATED WITH REDUCTION IN PRODUCTION OF FILAGGRIN, AND METHOD FOR SCREENING FOR SAID THERAPEUTIC AGENT” (KYOTO UNIVERSITY, priority 2012, published 2015):

Assays:
GPR142 = test: Blocking effect by GPR142 RNAi in NHEK cells (Examples 5 and 6); assay type: cell-based, human; details: 1 day; for induction of FLG mRNA expression: dependence on GPR142: GPR142 siRNA, compound 10 nM
Description: In this example, it was confirmed that the expression-inducing effects of Compound 1 on GPR142 mRNA and FLG mRNA in NHEK cells were blocked by GPR142 RNAi.
(§1) 1) 5×10^4 cells/well of NHEK cells (Invitrogen) were plated on a 24-well plate. Then, 500 μl of a culture medium containing a medium for proliferating normal human epidermal keratinocytes (HuMedia-KG2, KURABO INDUSTRIES LTD.) supplemented with hEGF (0.1 ng/ml), insulin (10 μg/ml), hydrocortisone (0.5 μg/ml), gentamycin (50 μg/ml), amphotericin B (50 ng/ml), and bovine brain pituitary extract (BPE) (0.4%, v/v) were added to the plate, and the cells were cultured under the conditions of 37° C. and 5% CO2.
2) After culture under the conditions of the step 1) for 1 day, the medium was exchanged for the culture medium of the step 1) to which CaCl2 (1.2 mM in terms of Ca) was further added as Ca, and culture was conducted under the conditions of 37° C. and 5% CO2. After culture for 1 day, the medium was exchanged for the same culture medium containing Ca, and culture was further conducted for 1 day.
3) The NHEK cells of the step 2) were transfected with 50 nM of siRNA per well of the 24-well plate by using a transfection reagent, Lipofectamine RNA Max (Invitrogen) according to the manufacturer's protocol.
The sequences of the used three kinds of GPR142 siRNAs and the sequences of the used control siRNAs (all the siRNAs are manufactured by Invitrogen) are described below.
4) After culture for 1 day after the transfection with siRNA in the step 3), the medium was exchanged for the culture medium of the step 1) to which a DMSO solution of Compound 1 was added at 10 nM per well, and culture was further conducted for 1 day. As a control, a solvent only (vehicle) was added.
5) An extraction reagent (TRIzol™, Invitrogen) was used, and according to the manufacturer's protocol, total RNA was extracted from each of cells treated with the medicament. A reverse transcriptase reagent (Prime Script™, Takara) was used, and according to the manufacturer's protocol, cDNA was prepared from the total RNA. Next, real-time PCR was conducted by using the following primers and SYBR™ Premix Ex Taq (Takara) with a CFX96 real-time PCR instrument according to the manufacturer's protocol, and the amounts of GPR142 mRNA and FLG mRNA expression were measured. The result of measurement is shown as a GAPDH ratio.
In this example, it was confirmed that the expression-inducing effects of Compound 2 or 3 on GPR142 mRNA and FLG mRNA in NHEK cells were blocked by GPR142 RNAi.
NHEK cells were transfected in the same manner as in Example 5 except that, in the steps 1) to 3) of Example 5, two kinds of GPR142 siRNAs and two kinds of control siRNAs, i.e., GPR142-1 (#HSS139493) and GPR142-3 (#HSS179846) and Control-1 (LOW GC, #129350-200), and Control-3 (HIGH GC, #129350-400) were used as GPR142 siRNAs and control siRNAs, respectively. After culture for 1 day after the transfection was conducted in the same manner as in the step 4) of Example 5, the medium was exchanged for the culture medium to which each of a DMSO solution of Compound 1, a DMSO solution of Compound 2, or a methanol solution of Compound 3 was added at 10 nM per well, and culture was further conducted for 1 day. As a control, a solvent only (vehicle) was added. Regarding each of cells treated with the medicament, real-time PCR was conducted to measure the amounts of GPR142 mRNA and FLG mRNA in the same manner as in the step 5) of Example 5. The results of the measurement are shown as a GAPDH ratio.

FLG mRNA = FLG mRNA expression-increasing effect in NHEK cells, real-time PCR (Example 2); assay type: cell-based, human; details: 10 nM, with or without calcium priming
Description: In this example, the FLG mRNA expression-increasing effect of Compound 1 or Compound 2 was confirmed by using NHEK cells.
as §1, with “plate, and then” for “plate. Then,”, “CO2. Next, after culture under the conditions of the following step 2) or 3), a sample was prepared. […]” for “CO2.”
4) An extraction reagent (TRIzol™, Invitrogen) was used, and according to the manufacturer's protocol, total RNA was extracted from each of cells treated with the medicament (Compound 1 or Compound 2) in the steps 2) and 3). […] Next, real-time PCR was conducted by using the following primers and SYBR™ Premix Ex Taq (Takara) with a CFX96 real-time PCR instrument (Bio-Rad Laboratories, Inc.) according to the manufacturer's protocol, and the amount of FLG mRNA was measured. […]

[1] = calcium priming, siRNA 50 nM, Compound 1 10 nM

## CCc1ccc(OCc2ccccc2C(=O)Nc2ccc3nc(C)cc(N)c3c2)cc1.Cl [Compound 1, N-(4-Amino-2-methyl-6-quinolyl)-2-[(4-ethylphenoxy)methyl]benzamide hydrochloride]
GPR142
  induction of FLG mRNA expression: dependence on GPR142: mediated by GPR142
GPR142; [1]
  FLG mRNA expression in the presence of GPR142 siRNA: suppressed by GPR142 siRNA
  GPR142 mRNA expression in the presence of GPR142 siRNA: suppressed by GPR142 siRNA
FLG mRNA
  FLG mRNA expression (GAPDH ratio): increases the FLG mRNA expression

## CC[C@H](C)[C@H]1O[C@]2(CC[C@@H]1C)C[C@@H]1C[C@@H](C/C=C(\C)[C@@H](O[C@H]3C[C@H](OC)[C@@H](O[C@H]4C[C@H](OC)[C@@H](O)[C@H](C)O4)[C@H](C)O3)[C@@H](C)/C=C/C=C3\CO[C@@H]4[C@H](O)C(C)=C[C@@H](C(=O)O1)[C@]34O)O2 [Compound 2, Ivermectin, reference compound]
GPR142
  induction of FLG mRNA expression: dependence on GPR142: mediated by GPR142
FLG mRNA
  FLG mRNA expression (GAPDH ratio): increases the FLG mRNA expression
